Source: PubChem BioAssay AID1963974 (Molecular Pharmacology Branch, DTP, NCI, 2024)

Tested on: 648629-189-R-J1-PDC spheroids with HUVEC/MSC, viability
Assay: Anticancer human tumor 648629-189-R-J1-PDC patient-derived bladder carcinoma cell line growth inhibition [PI3K]
Conditions: for IC50: curve of first compound; for viability, T/C: stronger effect = lower value; active = viability on the fitted dose curve at most 10% of control; inactive = the rest
Method in brief: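 Viability of mixed-cell spheroids was determined after exposure to pairwise combinations, one partner being inavolisib, alpelisib, duvelisib or copanlisib. Highest tested concentration matched clinical Cmax where known and 10 microM where not, descending in half-log steps.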

[1] = second compound 0.0316 µM, first compound 0.0316 µM
[2] = second compound 0.0316 µM, first compound 0.1 µM
[3] = second compound 0.0316 µM, first compound 0.316 µM
[4] = second compound 0.0316 µM, first compound 1 µM
[5] = second compound 0.0316 µM, first compound 3.16 µM
[6] = second compound 0.0316 µM, first compound 10 µM
[7] = second compound 0.1 µM, first compound 0.0316 µM
[8] = second compound 0.1 µM, first compound 0.1 µM
[9] = second compound 0.1 µM, first compound 0.316 µM
[10] = second compound 0.1 µM, first compound 1 µM
[11] = second compound 0.1 µM, first compound 3.16 µM
[12] = second compound 0.1 µM, first compound 10 µM
[13] = second compound 0.316 µM, first compound 0.0316 µM
[14] = second compound 0.316 µM, first compound 0.1 µM
[15] = second compound 0.316 µM, first compound 0.316 µM
[16] = second compound 0.316 µM, first compound 1 µM
[17] = second compound 0.316 µM, first compound 3.16 µM
[18] = second compound 0.316 µM, first compound 10 µM
[19] = second compound 1 µM, first compound 0.0316 µM
[20] = second compound 1 µM, first compound 0.1 µM
[21] = second compound 1 µM, first compound 0.316 µM
[22] = second compound 1 µM, first compound 1 µM
[23] = second compound 1 µM, first compound 3.16 µM
[24] = second compound 1 µM, first compound 10 µM
[25] = second compound 3.16 µM, first compound 0.0316 µM
[26] = second compound 3.16 µM, first compound 0.1 µM
[27] = second compound 3.16 µM, first compound 0.316 µM
[28] = second compound 3.16 µM, first compound 1 µM
[29] = second compound 3.16 µM, first compound 3.16 µM
[30] = second compound 3.16 µM, first compound 10 µM
[31] = second compound 10 µM, first compound 0.0316 µM
[32] = second compound 10 µM, first compound 0.1 µM
[33] = second compound 10 µM, first compound 0.316 µM
[34] = second compound 10 µM, first compound 1 µM
[35] = second compound 10 µM, first compound 3.16 µM
[36] = second compound 10 µM, first compound 10 µM
[37] = second compound 0.0316 µM, first compound 0.00316 µM
[38] = second compound 0.0316 µM, first compound 0.01 µM
[39] = second compound 0.1 µM, first compound 0.00316 µM
[40] = second compound 0.1 µM, first compound 0.01 µM
[41] = second compound 0.316 µM, first compound 0.00316 µM
[42] = second compound 0.316 µM, first compound 0.01 µM
[43] = second compound 1 µM, first compound 0.00316 µM
[44] = second compound 1 µM, first compound 0.01 µM
[45] = second compound 3.16 µM, first compound 0.00316 µM
[46] = second compound 3.16 µM, first compound 0.01 µM
[47] = second compound 10 µM, first compound 0.00316 µM
[48] = second compound 10 µM, first compound 0.01 µM
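Note: spheroids exposed to agents for seven days before reading.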
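Throughout, for viability, T/C: percent of vehicle control luminescence where 100% = DMSO treated spheroids.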

CC(C)NCC(C(=O)N1CCN(c2ncnc3c2C(C)CC3O)CC1)c1ccc(Cl)cc1 (stereo not given) + CC(Nc1ncnc2nc[nH]c12)c1cc2cccc(Cl)c2c(=O)n1-c1ccccc1
inactive: viability, T/C [1] 99.8% | viability, T/C [2] 93.6% | viability, T/C [3] 82% | viability, T/C [4] 49.4% | viability, T/C [5] 28.9% | viability, T/C [6] 17.3% | viability, T/C [7] 97.3% | viability, T/C [8] 90.3% | viability, T/C [9] 79.7% | viability, T/C [10] 61.3% | viability, T/C [11] 32.2% | viability, T/C [12] 19.3% | viability, T/C [13] 97.4% | viability, T/C [14] 91.2% | viability, T/C [15] 76.3% | viability, T/C [16] 53.4% | viability, T/C [17] 29.2% | viability, T/C [18] 17.7% | viability, T/C [19] 93.6% | viability, T/C [20] 94.5% | viability, T/C [21] 80.7% | viability, T/C [22] 54.2% | viability, T/C [23] 29.4% | viability, T/C [24] 17.5% | viability, T/C [25] 101% | viability, T/C [26] 91.3% | viability, T/C [27] 72.6% | viability, T/C [28] 48.6% | viability, T/C [29] 25.9% | viability, T/C [30] 15.5% | viability, T/C [31] 83.8% | viability, T/C [32] 72.2% | viability, T/C [33] 79.4% | viability, T/C [34] 48.4% | viability, T/C [35] 28.3% | viability, T/C [36] 18.2%
1.05 µM: IC50 (second compound 0.0316 µM)
0.904 µM: IC50 (second compound 3.16 µM)
1.23 µM: IC50 (second compound 1 µM)
1.52 µM: IC50 (second compound 0.1 µM)
1.01 µM: IC50 (second compound 10 µM)
1.14 µM: IC50 (second compound 0.316 µM)

CC1(C)CCC(CN2CCN(c3ccc(C(=O)NS(=O)(=O)c4ccc(NCC5CCOCC5)c([N+](=O)[O-])c4)c(Oc4cnc5[nH]ccc5c4)c3)CC2)=C(c2ccc(Cl)cc2)C1 + CC(Nc1ncnc2nc[nH]c12)c1cc2cccc(Cl)c2c(=O)n1-c1ccccc1
> 10 µM: IC50 (second compound 0.0316 µM) | IC50 (second compound 0.1 µM) | IC50 (second compound 0.316 µM) | IC50 (second compound 1 µM) | IC50 (second compound 3.16 µM) | IC50 (second compound 10 µM)
inactive: viability, T/C [1] 112% | viability, T/C [2] 95.7% | viability, T/C [3] 97.3% | viability, T/C [4] 93.1% | viability, T/C [5] 83.4% | viability, T/C [6] 70.3% | viability, T/C [7] 102% | viability, T/C [8] 85% | viability, T/C [9] 104% | viability, T/C [10] 92.3% | viability, T/C [11] 89.4% | viability, T/C [12] 64% | viability, T/C [13] 92.2% | viability, T/C [14] 109% | viability, T/C [15] 95.8% | viability, T/C [16] 94.5% | viability, T/C [17] 97.9% | viability, T/C [18] 65.9% | viability, T/C [19] 95.6% | viability, T/C [20] 108% | viability, T/C [21] 102% | viability, T/C [22] 85.4% | viability, T/C [23] 90.2% | viability, T/C [24] 68.4% | viability, T/C [25] 103% | viability, T/C [26] 101% | viability, T/C [27] 91.2% | viability, T/C [28] 99.5% | viability, T/C [29] 88.6% | viability, T/C [30] 60.1% | viability, T/C [31] 83.7% | viability, T/C [32] 97% | viability, T/C [33] 87.8% | viability, T/C [34] 84.8% | viability, T/C [35] 68.9% | viability, T/C [36] 59.2%

CCN1CCN(Cc2ccc(Nc3ncc(F)c(-c4cc(F)c5nc(C)n(C(C)C)c5c4)n3)nc2)CC1 + CC(Nc1ncnc2nc[nH]c12)c1cc2cccc(Cl)c2c(=O)n1-c1ccccc1
> 1 µM: IC50 (second compound 0.0316 µM) | IC50 (second compound 0.1 µM) | IC50 (second compound 0.316 µM) | IC50 (second compound 1 µM) | IC50 (second compound 3.16 µM) | IC50 (second compound 10 µM)
inactive: viability, T/C [37] 90.1% | viability, T/C [38] 96.2% | viability, T/C [1] 105% | viability, T/C [2] 111% | viability, T/C [3] 113% | viability, T/C [4] 122% | viability, T/C [39] 107% | viability, T/C [40] 99.4% | viability, T/C [7] 103% | viability, T/C [8] 101% | viability, T/C [9] 101% | viability, T/C [10] 135% | viability, T/C [41] 105% | viability, T/C [42] 96.3% | viability, T/C [13] 98% | viability, T/C [14] 108% | viability, T/C [15] 113% | viability, T/C [16] 109% | viability, T/C [43] 106% | viability, T/C [44] 92.5% | viability, T/C [19] 100% | viability, T/C [20] 90.3% | viability, T/C [21] 103% | viability, T/C [22] 96.4% | viability, T/C [45] 85.8% | viability, T/C [46] 106% | viability, T/C [25] 86.8% | viability, T/C [26] 88.2% | viability, T/C [27] 111% | viability, T/C [28] 105% | viability, T/C [47] 85.6% | viability, T/C [48] 80.7% | viability, T/C [31] 84.4% | viability, T/C [32] 88% | viability, T/C [33] 87% | viability, T/C [34] 75.5%

C[C@@H](NC(=O)c1ncnc(N)c1Cl)c1ncc(C(=O)Nc2cc(C(F)(F)F)c(Cl)cn2)s1 + CC(Nc1ncnc2nc[nH]c12)c1cc2cccc(Cl)c2c(=O)n1-c1ccccc1
inactive: viability, T/C [1] 98.8% | viability, T/C [2] 104% | viability, T/C [3] 111% | viability, T/C [4] 108% | viability, T/C [5] 118% | viability, T/C [6] 130% | viability, T/C [7] 113% | viability, T/C [8] 97.2% | viability, T/C [9] 112% | viability, T/C [10] 109% | viability, T/C [11] 112% | viability, T/C [12] 113% | viability, T/C [13] 105% | viability, T/C [14] 110% | viability, T/C [15] 102% | viability, T/C [16] 118% | viability, T/C [17] 112% | viability, T/C [18] 115% | viability, T/C [19] 115% | viability, T/C [20] 89% | viability, T/C [21] 113% | viability, T/C [22] 114% | viability, T/C [23] 113% | viability, T/C [24] 116% | viability, T/C [25] 112% | viability, T/C [26] 98.5% | viability, T/C [27] 98.3% | viability, T/C [28] 104% | viability, T/C [29] 107% | viability, T/C [30] 104% | viability, T/C [31] 103% | viability, T/C [32] 81% | viability, T/C [33] 78.8% | viability, T/C [34] 86.5% | viability, T/C [35] 91.8% | viability, T/C [36] 85.1%
> 10 µM: IC50 (second compound 0.0316 µM) | IC50 (second compound 0.1 µM) | IC50 (second compound 0.316 µM) | IC50 (second compound 1 µM) | IC50 (second compound 3.16 µM) | IC50 (second compound 10 µM)

Cn1ncnc1[C@H]1c2n[nH]c(=O)c3cc(F)cc(c23)N[C@@H]1c1ccc(F)cc1 + CC(Nc1ncnc2nc[nH]c12)c1cc2cccc(Cl)c2c(=O)n1-c1ccccc1
> 0.1 µM: IC50 (second compound 0.0316 µM) | IC50 (second compound 0.1 µM) | IC50 (second compound 0.316 µM) | IC50 (second compound 1 µM) | IC50 (second compound 3.16 µM) | IC50 (second compound 10 µM)
inactive: viability, T/C (second compound 0.0316 µM, first compound 0.000316 µM) 99.8% | viability, T/C (second compound 0.0316 µM, first compound 0.001 µM) 100% | viability, T/C [37] 99.8% | viability, T/C [38] 88.1% | viability, T/C [1] 67.2% | viability, T/C [2] 71% | viability, T/C (second compound 0.1 µM, first compound 0.000316 µM) 97.8% | viability, T/C (second compound 0.1 µM, first compound 0.001 µM) 101% | viability, T/C [39] 98.2% | viability, T/C [40] 81.2% | viability, T/C [7] 93.2% | viability, T/C [8] 66.7% | viability, T/C (second compound 0.316 µM, first compound 0.000316 µM) 94.2% | viability, T/C (second compound 0.316 µM, first compound 0.001 µM) 98.2% | viability, T/C [41] 91.9% | viability, T/C [42] 92% | viability, T/C [13] 85.4% | viability, T/C [14] 59.1% | viability, T/C (second compound 1 µM, first compound 0.000316 µM) 111% | viability, T/C (second compound 1 µM, first compound 0.001 µM) 100% | viability, T/C [43] 97.8% | viability, T/C [44] 82.3% | viability, T/C [19] 74.4% | viability, T/C [20] 65.1% | viability, T/C (second compound 3.16 µM, first compound 0.000316 µM) 96.4% | viability, T/C (second compound 3.16 µM, first compound 0.001 µM) 89.6% | viability, T/C [45] 88.7% | viability, T/C [46] 86.5% | viability, T/C [25] 81.6% | viability, T/C [26] 58.9% | viability, T/C (second compound 10 µM, first compound 0.000316 µM) 90.4% | viability, T/C (second compound 10 µM, first compound 0.001 µM) 86.7% | viability, T/C [47] 80.7% | viability, T/C [48] 80.7% | viability, T/C [31] 71.1% | viability, T/C [32] 55.9%
